For series [1], the system named is HSA/fructose system. In words: HSA glycation, early stage: fructosamine (NBT test). The series is classed as biochemical, human. The arrangement: dose or concentration left out as unconfirmed.
Series [2] concerns HSA/fructose system. In words: HSA glycation: protein thiol group protection. As to conditions: for thiol shielding / thiol group protection: 100 µg/mL; for Thiols Group: HSA/fructose. The class given is biochemical, human.
Series [3] has as its system HSA/fructose system. In words: HSA glycation, intermediate stage: protein carbonyls. The class given is biochemical, human.
The nature of series [4]: DPPH radical scavenging activity. As to conditions: mean ± SE. In general terms: The DPPH test is a chemical assay of radical scavenging.
Series [5] is described as follows: superoxide radical scavenging activity. As to conditions: mean ± SE.
A short description of series [6]: ABTS radical scavenging activity. Conditions: mean ± SE.
In series [7] the target is yeast α-glucosidase. The series is classed as biochemical. Conditions: mean ± SE.
Series [8] has as its target T1, α-amylase (Sus scrofa, UniProt P00690).
T1 sequence (P00690 16-511): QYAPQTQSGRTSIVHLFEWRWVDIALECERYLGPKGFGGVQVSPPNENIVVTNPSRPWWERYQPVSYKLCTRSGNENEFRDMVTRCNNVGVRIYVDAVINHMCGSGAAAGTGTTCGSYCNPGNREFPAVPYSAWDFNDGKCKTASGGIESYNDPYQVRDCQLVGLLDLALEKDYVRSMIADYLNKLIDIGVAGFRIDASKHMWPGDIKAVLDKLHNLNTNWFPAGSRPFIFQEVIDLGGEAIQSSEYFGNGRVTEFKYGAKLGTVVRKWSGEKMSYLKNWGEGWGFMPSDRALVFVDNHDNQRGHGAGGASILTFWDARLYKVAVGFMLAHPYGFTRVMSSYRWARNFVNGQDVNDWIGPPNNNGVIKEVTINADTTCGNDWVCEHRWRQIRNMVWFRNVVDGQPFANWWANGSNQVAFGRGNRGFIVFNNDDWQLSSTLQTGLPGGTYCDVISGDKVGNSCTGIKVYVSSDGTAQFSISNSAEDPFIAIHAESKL
In words: α-amylase inhibition kinetics (Lineweaver-Burk, secondary plot). The series is classed as biochemical, porcine.

Series [9] relates to α-glucosidase. In words: α-glucosidase inhibition kinetics (Lineweaver-Burk, secondary plot). As to conditions: for Mode of Inhibition, α-Glucosidase: from double reciprocal plot; for Ki, α-Glucosidase: secondary plot, mean ± SE. The series is classed as biochemical, yeast.
In series [10] the target is T2, aldose reductase (Homo sapiens, UniProt P15121). In words: aldose reductase inhibition kinetics (Lineweaver-Burk, secondary plot). Conditions: for Mode of Inhibition, Aldose reductase: from double reciprocal plot. The class given is biochemical.
On the set-up of series [11]: method as in earlier work. As to conditions: ref [9] of the supplement, cited from earlier work.
Series [12] deals with T2, aldose reductase. In words: aldose reductase inhibition assay. The class given is biochemical. As to conditions: mean ± SE.
Series [13] deals with T3, type-VI B porcine pancreatic α-amylase (Sus scrofa, UniProt P00690).
T3 sequence (P00690 16-511): T1 sequence (P00690 16-511)
In words: α-amylase inhibition assay. The series is classed as biochemical. Conditions: mean ± SE.

Where “and” joins values, the source holds several entries; their conditions need not be identical. Identical values can stand only once. Marks after values point to notes of the source that are not given here.

Regarding `N=C(N)NN` [Aminoguanidine, aminoguanidine, reference compound], the Fructosamine in [1] (week 1) was 28.50 ± 1.16 ^d mmol/mg Protein; in [1] (week 2), 30.00 ± 1.00 ^d mmol/mg Protein; in [1] (week 3), 31.75 ± 0.97 ^d mmol/mg Protein. Moreover, the “thiol shielding / thiol group protection” value in series [2] is recorded as 71%. In addition, the “Thiols Group” value is given as 0.95 ± 1.46 ^b nmol/mg protein in series [2] (week 1), 1.04 ± 1.00 ^b nmol/mg protein in series [2] (week 2) and 1.17 ± 0.89 ^b nmol/mg protein in [2] (week 3). For the same compound, the results for the “Protein carbonyl Content” value in [3] (week 1), in series [3] (week 2) and in [3] (week 3) were 0.64 ± 0.54 ^e nmol/mg protein, 0.66 ± 1.05 ^e nmol/mg protein and 0.70 ± 1.11 ^e nmol/mg protein, respectively.
Consider `COc1ccc(O)c(C(C)(C)C)c1` [BHA, butylated hydroxyl anisole, reference compound], for which, in series [4], the “EC50 Radical Scavenging Activities DPPH” value is 40.25 ± 0.30 ^d μg/mL. The “EC50 Radical Scavenging Activities Superoxide” value in series [5] was 64.75 ± 0.13 ^d μg/mL. Moreover, in series [6], the “EC50 Radical Scavenging Activities ABTS” value is 31.00 ± 0.55 ^d μg/mL.
In the case of `O=C(O)C=Cc1ccc(O)c(O)c1` [Caffeic acid, 3-(3,4-Dihydroxyphenyl)-2-propenoic acid], the “IC50 α-Glucosidase” value in [7] was 8.00 ± 0.40 ^a µg/mL. Besides, the Fructosamine in series [1] (week 1) was 26.82 ± 0.14 ^a mmol/mg Protein; in series [1] (week 2), 27.06 ± 0.13 ^a mmol/mg Protein; in series [1] (week 3) it was 28.02 ± 1.04 ^a mmol/mg Protein. Also, the “EC50 Radical Scavenging Activities DPPH” value in series [4] is given as 18.50 ± 0.08 ^b μg/mL. In series [5], the “EC50 Radical Scavenging Activities Superoxide” value is reported as 30.13 ± 2.05 ^b μg/mL. Besides, in [8] (inhibitor at IC40), the “Vmax, α-Amylase” value is recorded as 25.75 10^3(µM/min)^−1. The “thiol shielding / thiol group protection” value in [2] is given as 74–83%. Further, the “Thiols Group” value is 0.69 ± 0.55 ^a nmol/mg protein in [2] (week 1), 0.79 ± 0.05 ^a nmol/mg protein in series [2] (week 2) and 0.80 ± 0.88 ^a nmol/mg protein in series [2] (week 3). Moreover, the results for the “Protein carbonyl Content” value in [3] (week 1), in series [3] (week 2) and in [3] (week 3) were 0.49 ± 2.17 ^b nmol/mg protein, 0.57 ± 1.25 ^b nmol/mg protein and 0.57 ± 2.22 ^b nmol/mg protein, respectively. Further, the “Mode of Inhibition, α-Glucosidase” value in series [9] is recorded as “Competitive”. Moreover, the “Vmax, α-Glucosidase” value is recorded as 39.98 10^3(µM/min)^−1 in [9] (inhibitor at IC20), 40.40 10^3(µM/min)^−1 in series [9] (inhibitor at IC40) and 40.37 10^3(µM/min)^−1 in series [9] (inhibitor at IC60). Besides, the “Ki, α-Glucosidase” value in series [9] (listed as CA) is 1.03 mg and 0.52 ± 0.02 mg. The “Mode of Inhibition, Aldose reductase” value in series [10] was “Non-competitive”. In addition, the “Vmax, Aldose reductase” value in [10] (inhibitor at IC20) is on record as 13.35 10^3(µM/min)^−1; in series [10] (inhibitor at IC40), 10.15 10^3(µM/min)^−1; in series [10] (inhibitor at IC60) it was 5.05 10^3(µM/min)^−1. The “EC50 Radical Scavenging Activities ABTS” value in series [6] is reported as 12.44 ± 1.60 ^b μg/mL.
Take `O=c1c(O)c(-c2ccc(O)c(O)c2)oc2cc(O)cc(O)c12` [Quercetin]: the “adverse effects on serum electrolytes, renal, haematological, and liver function blood parameters” value in [11] (>1000 mg/day for several months) is on record as “no adverse effects”. In series [11], the “safety and tolerability in human clinical trials” value is “safe and well-tolerated”.
By IC50 is commonly meant the concentration needed to halve the response being measured. What is called Ki is a dissociation constant, usually derived from enzyme kinetics or from competition with a known ligand. Take `COc1cc(C(=O)O)cc(OC)c1O` [Syringic acid, 4-Hydroxy-3,5-dimethoxybenzoic acid]: the values for the IC50 in [12] and in [13] were 15.1 µM and 127 µM, respectively. For the same compound, in series [7], the “IC50 α-Glucosidase” value was 7.50 ± 1.05 ^a µg/mL. Further, the Fructosamine is 26.30 ± 1.21 ^b mmol/mg Protein in series [1] (week 1), 26.99 ± 1.90 ^b mmol/mg Protein in [1] (week 2) and 26.41 ± 1.18 ^b mmol/mg Protein in series [1] (week 3). Moreover, in series [4], the “EC50 Radical Scavenging Activities DPPH” value is 16.00 ± 0.13 ^a μg/mL. The “EC50 Radical Scavenging Activities Superoxide” value in [5] is recorded as 28.00 ± 1.19 ^a μg/mL. Further, in series [8] (from double reciprocal plot), the “Mode of Inhibition, α-Amylase” value was “Competitive”. For the same compound, the “Vmax, α-Amylase” value in series [8] (inhibitor at IC20) is 51.10 10^3(µM/min)^−1; in series [8] (inhibitor at IC40), 51.11 10^3(µM/min)^−1; in series [8] (inhibitor at IC60), 50.95 10^3(µM/min)^−1. Also, the Ki was 6.31 µM in series [8] (secondary plot, mean ± SE) and 8.28 µM in [10] (secondary plot, mean ± SE). For the same compound, the “thiol shielding / thiol group protection” value in series [2] is 74–83%. Moreover, the “Thiols Group” value in [2] (week 1) is given as 0.64 ± 0.62 ^a nmol/mg protein; in series [2] (week 2), 0.76 ± 0.53 ^a nmol/mg protein; in series [2] (week 3) it was 0.78 ± 0.34 ^a nmol/mg protein. Besides, the “Protein carbonyl Content” value in series [3] (week 1) is recorded as 0.49 ± 1.06 ^c nmol/mg protein; in series [3] (week 2), 0.54 ± 0.62 ^c nmol/mg protein; in [3] (week 3), 0.54 ± 1.32 ^c nmol/mg protein. In series [9], the “Mode of Inhibition, α-Glucosidase” value is on record as “Competitive”. In addition, the “Vmax, α-Glucosidase” value in [9] (inhibitor at IC20) was 33.55 10^3(µM/min)^−1; in series [9] (inhibitor at IC40), 33.43 10^3(µM/min)^−1; in [9] (inhibitor at IC60), 33.79 10^3(µM/min)^−1. Moreover, the “Ki, α-Glucosidase” value in [9] worked out at 0.96 ± 0.22 mg; in series [9] (listed as SA), 1.25 mg. For the same compound, the “Mode of Inhibition, Aldose reductase” value in series [10] is reported as “Non-competitive”. Besides, the entries for the “Vmax, Aldose reductase” value in series [10] (inhibitor at IC20), in series [10] (inhibitor at IC40) and in [10] (inhibitor at IC60) were 34.47 10^3(µM/min)^−1, 20.05 10^3(µM/min)^−1 and 11.50 10^3(µM/min)^−1, respectively. Besides, in [6], the “EC50 Radical Scavenging Activities ABTS” value is on record as 11.40 ± 2.04 ^a μg/mL.

Source of the values: PMC8949615, “Inhibitory Effect of Polyphenols from the Whole Green Jackfruit Flour against α-Glucosidase, α-Amylase, Aldose Reductase and Glycation at Multiple Stages and Their Interaction: Inhibition Kinetics and Molecular Simulations” (Molecules, 2022).
